Values of other authors in patent publication US20200246376A1, “HYDROGEN BASED COMPOSITIONS” (HYDROGEN4HEALTH PTY LTD, priority 2019, published 2020).

## [HH] [molecular hydrogen, hydrogen]
Hydrogen water prepared by electrolysis
  saturation of molecular hydrogen in water: around 1.6 ppm
Standard temperature and pressure (STP)
  typical saturation of hydrogen gas in water: 1.6 mg/L
